Earlier results as cited in PMC8177746 (ACS applied materials & interfaces, 2020).

Test system: Staphylococcus aureus
Conditions: ref 14 (Lai et al.)

For ILGPVLGLVSDTLDDVLGIL-NH2 [MH5], the MIC is given as 80 µM.
